In patent US20090069359A1 (priority 2006, published 2009):

Legend:
[1] = test system: hair loss and baldness; parameters: species or system human; settings: in vivo
[2] = test system: erectile dysfunction; parameters: species or system human; settings: in vivo
[3] = test system: facial wrinkles; settings: human, in vivo
[4] = test system: Peyronie's disease; parameters: species or system human; settings: in vivo

C[C@H]1C[C@H]2[C@@H]3CCC4=CC(=O)C=C[C@]4(C)[C@@]3(F)[C@@H](O)C[C@]2(C)[C@@]1(O)C(=O)CO [betamethasone]
time of treatment after which new hair growth began [1]: 30 days

CC1CCC(C(C)C)C(O)C1 (stereo not drawn) [menthol]
erections [2]: improved erections were obtained

Nc1cc(N2CCCCC2)nc(N)[n+]1[O-] [minoxidil]
time of treatment after which new hair growth began [1]: 30 days

CC1=C(/C=C/C(C)=C/C=C/C(C)=C/C(=O)O)C(C)(C)CCC1 [Retin A, tretinoin]
duration of wrinkle reducing effect [3]: lasts up to one week
period over which wrinkle reducing effect occurs [3]: 72 h
wrinkle treatment outcome [3]: used successfully

CC(C)NCC(O)COc1cccc2ccccc12 (stereo not drawn) [propranolol]
penile curvature outcome [4]: gradually attained a straightened penis
time to straightened penis [4]: ≤ 90 days

botulinum toxina [Botox]
duration of wrinkle reducing effect [3]: lasts up to one week
period over which wrinkle reducing effect occurs [3]: 72 h
wrinkle treatment outcome [3]: used successfully

CC12CCC(CC1)C(C)(C)O2 [eucalyptol]
erections [2]: improved erections were obtained
